One assay has as its system blood NOx. As to the kind of experiment: IBD model mouse: blood NOx concentration. Conditions: IBD model mice, diet 3 weeks, vs Control group; FIG. 13. It counts as in vivo. Here is the method: By the activation of leukocytes in an inflammatory response, a large amount of NO is produced by the cells, and the blood concentration of NOx, a metabolite, increases. It is known that blood NOx concentration becomes one index of inflammatory response in living organisms due to this mechanism (Yuka Ikenoue et al., International Immunopharmacology 5 (2005) 993-1006). The NOx concentration of the blood obtained in Example 10 was measured using an “Nitric Oxide Quantitation Kit (ACTIVE MOTIF)”.

The next assay concerns VCAM-1 mRNA. In words: VCAM-1 mRNA expression in HAEC by real-time PCR. Conditions: 10 μM 24 h, 25 mM glucose 3 h, GAPDH internal standard, FIG. 3A. The assay is classed as cell-based, human. As for the experimental part:
HAEC cells pre-treated with 10 μM of CS or FS for 24 hours were stimulated with 25 mM glucose for 3 hours, and total RNA was extracted with Isogenkit (NIPPON GENE CO., LTD.). From 1 μg of RNA, cDNA was synthesized using 100 U/mL of reverse transcriptase (TAKARA BIO INC.) and 0.1 μM of oligo (dT)-adapter (TAKARA BIO INC.) (total volume of reaction mixture; 50 μL) (42° C., 40 minutes). Real-time PCR was performed using 7300 Real Time PCR system (Applied Biosystems Japan Ltd.) and the PCR product was detected by SYBER Green I.
PCR reaction composition (RT-PCRkit, TAKARA BIO INC.): 12.5 μL Premix Ex Taq, 2.5 μL SYBER Green I, synthesis primer, ROX reference dye, cDNA (corresponding to 20 ng of total RNA), final reaction volume; 25 μL
Primers having the following sequences were used.
PCR was conducted under the following conditions.
thermal denaturation: at 95° C. for 15 seconds, extension reaction: 40 cycles (3 seconds at 95° C., 31 seconds at 60° C.)
Expression amounts of VCAM-1 and MCP-1 mRNA were calculated using GAPDH as the internal standard.
On the technique in general: In qPCR the cycle at which signal appears reflects the starting amount.

The test system of the next assay is MCP-1. As to the kind of experiment: MCP-1 secretion into medium of HAEC (immunoassay). The assay is classed as cell-based, human. Conditions: 0.1-10 μM 24 h, 25 mM glucose 4 h, FIG. 4B. Here is the method:
HAEC cells proliferated to confluence in a 96 well microplate were pre-incubated with 0.1-10 μM serotonin derivative for 24 hours, and stimulated with 25 mM glucose for 4 hours. The cell layer was washed with Hanks solution, and then anti-VCAM-1 monoclonal antibody (Becton Dickinson) was added and the cells were incubated at 37° C. for 1 hour. After washing, the cells were incubated with secondary antibody (peroxidase-labeled anti-mouse IgG goat F(ab′)2 fragment; Cappel) for 1 hour. A color development substrate (o-phenylenediamine dihydrochloride) was added and, about 30 minutes later (room temperature), the absorbance (492 nm) of each well was quantified with a microplate reader. The MCP-1 concentration of the medium was quantified with Human MCP-1 Immunoassay Kit (BioSource International).

Assay [1] deals with IBD model mice (IL-10 deficient cell-transplanted SCID mice). As to the kind of experiment: Inflammatory bowel disease (IBD) model mouse: large intestine and blood cell counts. The assay is classed as in vivo. The settings on record: diet 3 weeks, vs Control group. The source says:
Immunopharmacol., 5, 993-1006 (2005)).
(§1) 4 days before IL-10 deficient cell transplantation, total 40 SCID mice (7-week-old, were divided into the following 4 groups 1) to 4) (10 mice in each group) and acclimation to a control diet was simultaneously started. Immediately after cell transfer, the feed was changed to the test diet shown in Table 4, and free ingestion was allowed for 3 weeks. The safflower seed extract powder was the same as that in Example 8, and contained 50 wt % of γ-cyclodextrin. N-Feruloylserotonin (FS) was synthesized according to the method of Experimental Example 1. During the test diet ingestion period, the body weight, the amount of ingested feed and the amount of water drunk were measured 3 times a week to monitor the onset of the disease.
(§2) 1) Normal group (normal SCID mice×control diet) 2) Control group (IL-10 deficient cell-transplanted SCID mice×control diet) 3) SSE group (IL-10 deficient cell-transplanted SCID mice×SSE diet*) 4) FS group (IL-10 deficient cell-transplanted SCID mice×FS diet**) *containing FS and p-coumaroyl serotonin (CS) at 0.10 and 0.13 wt %, respectively (based on aglycone) (total serotonin derivative content=[…]) **containing 0.4 wt % of FS aglycone
After the completion of the test diet ingestion period, blood samples were collected under anesthesia, and the length of the isolated large intestine (appendix—anus) and the weight thereof (after washing the contents) were measured. Using the obtained data, t-test was first conducted between the Normal group and the Control group and, after confirmation of the effectiveness of the test, variance analyses were performed between the Control group and each of SSE and FS groups, and the effect of the test substance was compared by Dunnett-test.

Assay [2] is described as follows: IBD model mouse: body weight, ingested feed, water drunk. The assay is classed as in vivo. The settings on record: IBD model mice.
Excerpt: as §1, §2

For assay [3], the system named is U-937 monocyte cells / HAEC. In words: Monocyte (U-937) adhesion to HAEC cells. The assay is classed as cell-based, human. Conditions: HAEC pre-incubated 5 or 10 μM 24 h, 25 mM glucose 4 h; FIG. 5. Here is the method: HAEC cells proliferated to confluence in a 24 well microplate were pre-incubated with CS and FS (5 or 10 μM each) for 24 hours and stimulated with 25 mM glucose for 4 hours. The cell layer was washed with Hanks solution, and then a suspension (1×10^6/mL, 200 μL) of U-937 monocyte cells (purchased from ATCC) was added, and the mixture was incubated at 37° C. for 30 minutes. After washing again, the cells were fixed with 1% para-formaldehyde and the number of U-937 cells attached onto HAEC was counted under a microscope (20 fields). The experiment was performed 3 times and the results are shown as an average value thereof. An experiment using fluorescence-labeled U-937 cells was also performed. To be specific, U-937 cells were incubated (37° C., 1 hour) in the presence of 10 μM 2′,7′-bis(2-carboxyethyl)-5(6)-carboxyfluorescein acetoxymethylester (BCECF-AM, Molecular Probes) and washed by centrifugation. Fluorescence-labeled U-937 cells (1×10^6/mL) were added to HAEC cells, and the mixture was incubated at 37° C. for 1 hour. The floating U-937 cells were removed, the plate was washed with PBS buffer and treated with 1% Triton X for 2 hours. The fluorescence amount of the attached cells was quantified (Ex. 503 nm, Em. 525 nm) using a fluorescence plate reader (Bio-Rad, Fluoromark).

Regarding `COc1cc(/C=C/C(=O)NCCc2c[nH]c3ccc(O)cc23)ccc1O` [FS, N-feruloyl serotonin], the “blood NOx concentration” value with blood NOx is given as “tendency toward decrease”. In addition, in the assay on VCAM-1 mRNA, the “expression amount of VCAM-1 mRNA” value was “significantly suppressed the increase”. Moreover, the “MCP-1 secretion into the medium” value in the assay on MCP-1 is recorded as “suppressed the induction of their expressions in a dose-dependent manner”. The large intestine weight entry in assay [1] (FIG. 11B) is on record as “significantly lower values”. The “large intestine weight per unit intestine length” value in assay [1] (FIG. 11C) is “significantly lower values”. In addition, in assay [1] (FIG. 12B), the platelet count entry is “significantly lower”. The leukocyte count entry in assay [1] (not statistically significant, FIG. 12A) is recorded as “tendency toward lower values”. Besides, in assay [1] (not statistically significant, FIG. 12C), the neutrophil count result is “tendency toward lower values”. Besides, the monocyte count result in assay [1] (not statistically significant, FIG. 12D) was “tendency toward lower values”. Further, in assay [2] (day 21 vs day 0, mean ± SEM), the “body weight change rate (day 0 = 100)” value is 112.5 ± 1.2. For the same molecule, the “body weight, completion of test diet ingestion (day 21)” value in assay [2] (mean ± SEM) stood at 20.6 ± 0.4 g. Besides, the “body weight, start of test diet ingestion (day 0)” value in assay [2] (mean ± SEM, baseline) was 18.3 ± 0.3 g. In assay [3], the “number of U-937 cells attached onto HAEC (cell count)” value is “decreased the number of attached cells in a serotonin derivative dose-dependent manner”.

Source of the values: patent US20090156657A1, “ANTI-INFLAMMATORY COMPOSITION” (Ajinomoto Co., Inc., priority 2006, published 2009).
